Assay results published in patent US8680159B2, “Bradykinin 1 receptor modulating compounds” (Gruenenthal GmbH, priority 2010, dated 2014).

Legend:
[1] = biological target: T1, human B1R receptor (CHO K1 cells stably transfected with the human B1R gene) (Homo sapiens, UniProt P46663); experiment: Functional study on the bradykinin receptor 1 (B1R), Ca2+ fluorescence (Fluo-4) FLIPR/Novostar assay, hB1R cells; format: cell-based; conditions: CHO-K1, read-out: % inhibition (human B1R) at 10 μM
T1 construct: expressed in transfected cells; host or cells: CHO K1 cells (Chinese hamster ovary), stably transfected
T1 sequence (P46663 1-353): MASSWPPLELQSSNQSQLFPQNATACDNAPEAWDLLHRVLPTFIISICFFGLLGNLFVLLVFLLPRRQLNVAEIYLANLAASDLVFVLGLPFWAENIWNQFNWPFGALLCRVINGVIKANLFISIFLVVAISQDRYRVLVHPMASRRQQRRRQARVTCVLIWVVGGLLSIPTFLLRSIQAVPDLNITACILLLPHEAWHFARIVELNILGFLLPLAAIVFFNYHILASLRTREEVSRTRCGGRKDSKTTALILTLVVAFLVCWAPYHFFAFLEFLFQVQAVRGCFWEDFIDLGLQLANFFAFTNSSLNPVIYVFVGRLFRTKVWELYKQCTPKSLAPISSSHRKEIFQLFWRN
Procedure, shortened: (§1)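 Ca2+ influx (Fluo-4, peak fluorescence, λex 488/λem 540 nm) was measured in CHO K1 lines expressing rat or human B1R. After a 10 μM test-compound pre-addition scoring % activation, cells received EC80 agonist: Des-Arg9-bradykinin for rat, Lys-Des-Arg9-bradykinin for human. Antagonism was expressed as % of maximum inhibition, with IC50 from varied concentrations.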

[2] = biological target: T2, B1R receptor of the rat (CHO K1 cells stably transfected with the B1R gene of the rat) (Rattus norvegicus, UniProt P97583); experiment: Functional study on the bradykinin receptor 1 (B1R), Ca2+ fluorescence (Fluo-4) FLIPR/Novostar assay, rB1R cells; format: cell-based; conditions: CHO-K1, 10 μM, read-out: % inhibition (rat B1R) at 10 μM
T2 construct: expressed in transfected cells; host or cells: CHO K1 cells (Chinese hamster ovary), stably transfected
T2 sequence (P97583 1-337): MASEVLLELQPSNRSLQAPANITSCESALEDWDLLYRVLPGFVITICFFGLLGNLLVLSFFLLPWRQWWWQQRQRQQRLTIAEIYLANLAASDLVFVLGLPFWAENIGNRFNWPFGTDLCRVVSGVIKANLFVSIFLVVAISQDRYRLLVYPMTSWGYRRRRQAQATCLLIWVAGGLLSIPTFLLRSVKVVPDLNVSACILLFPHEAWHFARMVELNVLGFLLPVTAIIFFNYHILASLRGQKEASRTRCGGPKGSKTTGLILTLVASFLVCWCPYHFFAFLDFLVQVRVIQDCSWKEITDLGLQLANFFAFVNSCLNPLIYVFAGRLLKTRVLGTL
Procedure, shortened: as §1

Structure (SMILES) | inhibition at 10 µM [1] [%] | inhibition at 10 µM [2] [%]
CN(C(=O)c1ccc2c(c1)[C@H](NC(=O)c1ccccc1Cl)CC2)C1CCN(c2ccncc2F)CC1 [Example H-117, (3R)-3-[(2-Chloro-benzoyl)amino]-N-[1-(3-fluoro-pyridin-4-yl)-piperidin-4-yl]-N-methyl-2,3-dihydro-1H-indene-5-carboxylic acid amide] | 99 | 105
CN(C)c1nccc(N2CCC(N(C)C(=O)c3ccc4c(c3)[C@H](NC(=O)c3ccccc3Cl)CC4)CC2)n1 [Example H-118, (3R)-3-[(2-Chloro-benzoyl)amino]-N-[1-(2-dimethylamino-pyrimidin-4-yl)-piperidin-4-yl]-N-methyl-2,3-dihydro-1H-indene-5-carboxylic acid amide] | 100 | 104
CC(C)CC(=O)N(C(C)C)[C@@H]1CCc2ccc(C(=O)N(C)C3CCN(c4ccnc(N(C)C)c4)CC3)cc21 [Example H-119, (3R)-N-[1-(2-Dimethylamino-pyridin-4-yl)-pipendin-4-yl]-3-[isopropyl-(3-methyl-butanoyl)-amino]-N-methyl-2,3-dihydro-1H-indene-5-carboxylic acid amide] | 91 | 52
CC(C)CC(=O)N(C(C)C)[C@@H]1CCc2ccc(C(=O)N(C)C3CCN(c4ccnc(N(C)C)n4)CC3)cc21 [Example H-120, (3R)-N-[1-(2-Dimethylamino-pyrimidin-4-yl)-pipendin-4-yl]-3-[isopropyl-(3-methyl-butanoyl)-amino]-N-methyl-2,3-dihydro-1H-indene-5-carboxylic acid amide] | 98 | 78
Cc1nccc(N2CCC(N(C)C(=O)c3ccc4c(c3)[C@H](NC(=O)c3ccccc3Cl)CC4)CC2)n1 [Example H-122, (3R)-3-[(2-Chloro-benzoyl)amino]-N-methyl-N-[1-(2-methyl-pyrimidin-4-yl)-piperidin-4-yl]-2,3-dihydro-1H-indene-5-carboxylic acid amide] | 100 | 103
CN(C(=O)c1ccc2c(c1)[C@H](NC(=O)c1ccccc1Cl)CC2)C1CCN(c2ccnc(C#N)c2)CC1 [Example H-123, (3R)-3-[(2-Chloro-benzoyl)amino]-N-[1-(2-cyano-pyridin-4-yl)-piperidin-4-yl]-N-methyl-2,3-dihydro-1H-indene-5-carboxylic acid amide] | 97 | 107
CN(C(=O)c1ccc2c(c1)[C@H](NC(=O)c1ccccc1Cl)CC2)C1CCN(c2ccnc(N3CCCC3)c2)CC1 [Example H-124, (3R)-3-[(2-Chloro-benzoyl)amino]-N-methyl-N-[1-(2-pyrrolidin-1-yl-pyridin-4-yl)-piperidin-4-yl]-2,3-dihydro-1H-indene-5-carboxylic acid amide] | 100 | 108
Cc1nsc(N2CCC(N(C)C(=O)c3ccc4c(c3)[C@H](NC(=O)c3ccccc3Cl)CC4)CC2)n1 [Example H-125, (3R)-3-[(2-Chloro-benzoyl)amino]-N-methyl-N-[1-(3-methyl-[1,2,4]thiadiazol-5-yl)-piperidin-4-yl]-2,3-dihydro-1H-indene-5-carboxylic acid amide] | 70 | 104
COc1nc(C)cc(N2CCC(N(C)C(=O)c3ccc4c(c3)[C@H](NC(=O)c3ccccc3Cl)CC4)CC2)n1 [Example H-126, (3R)-3-[(2-Chloro-benzoyl)amino]-N-[1-(2-methoxy-6-methyl-pyrimidin-4-yl)-piperidin-4-yl]-N-methyl-2,3-dihydro-1H-indene-5-carboxylic acid amide] | 100 | 104
CN(C(=O)c1ccc2c(c1)[C@H](NC(=O)c1ccccc1Cl)CC2)C1CCN(c2ncnc3ccccc23)CC1 [Example H-127, (3R)-3-[(2-Chloro-benzoyl)amino]-N-methyl-N-(1-quinazolin-4-yl-piperidin-4-yl)-2,3-dihydro-1H-indene-5-carboxylic acid amide] | 96 | 91
Cc1cc(N2CCC(N(C)C(=O)c3ccc4c(c3)[C@H](NC(=O)c3ccccc3F)CC4)CC2)nc(C)n1 [Example H-128, (3R)-N-[1-(2,6-Dimethyl-pyrimidin-4-yl)-piperidin-4-yl]-3-[(2-fluoro-benzoyl)amino]-N-methyl-2,3-dihydro-1H-indene-5-carboxylic acid amide] | 99 | 100
Cc1cc(N2CCC(N(C)C(=O)c3ccc4c(c3)[C@H](NC(=O)c3cccc(F)c3Cl)CC4)CC2)nc(C)n1 [Example H-129, (3R)-3-[(2-Chloro-3-fluoro-benzoyl)amino]-N-[1-(2,6-dimethyl-pyrimidin-4-yl)-piperidin-4-yl]-N-methyl-2,3-dihydro-1H-indene-5-carboxylic acid amide] | 100 | 98
Cc1cc(N2CCC(N(C)C(=O)c3ccc4c(c3)[C@H](N3Cc5cccc(Cl)c5C3=O)CC4)CC2)nc(C)n1 [Example H-130, (3R)-3-(4-Chloro-3-oxo-1,2-dihydro-isoindol-2-yl)-N-[1-(2,6-dimethyl-pyrimidin-4-yl)-piperidin-4-yl]-N-methyl-2,3-dihydro-1H-indene-5-carboxylic acid amide] | 99 | 101
COc1c(C)cnc(CN2CCC(N(C)C(=O)c3ccc4c(c3)[C@H](NC(=O)c3ccccc3Cl)CC4)CC2)c1C [Example H-131, (3R)-3-[(2-Chloro-benzoyl)amino]-N-[1-[(4-methoxy-3,5-dimethyl-pyridin-2-yl)-methyl]-piperidin-4-yl]-N-methyl-2,3-dihydro-1H-indene-5-carboxylic acid amide] | 55 | 77
Cc1cc(N2CCC(N(C)C(=O)c3ccc4c(c3)[C@H](NC(=O)c3ccccc3C(F)(F)F)CC4)CC2)nc(C)n1 [Example H-132, (3R)-N-[1-(2,6-Dimethyl-pyrimidin-4-yl)-piperidin-4-yl]-N-methyl-3-[[2-(trifluoromethyl)-benzoyl]amino]-2,3-dihydro-1H-indene-5-carboxylic acid amide] | 99 | 99
Cc1cc(N2CCC(N(C)C(=O)c3ccc4c(c3)[C@H](NC(=O)c3cc(F)ccc3Cl)CC4)CC2)nc(C)n1 [Example H-133, (3R)-3-[(2-Chloro-5-fluoro-benzoyl)amino]-N-[1-(2,6-dimethyl-pyrimidin-4-yl)-piperidin-4-yl]-N-methyl-2,3-dihydro-1H-indene-5-carboxylic acid amide] | 99 | 100
Cc1cc(CN2CCC(N(C)C(=O)c3ccc4c(c3)[C@H](NC(=O)c3ccccc3Cl)CC4)CC2)on1 [Example H-134, (3R)-3-[(2-Chloro-benzoyl)amino] N-methyl-N-[1-[(3-methyl-isoxazol-5-yl)-methyl]-piperidin-4-yl]-2,3-dihydro-1H-indene-5-carboxylic acid amide] | 8 | 55
Cc1cc(N2CCC(N(C)C(=O)c3ccc4c(c3)[C@H](NC(=O)c3cccc(C(F)(F)F)c3Cl)CC4)CC2)nc(C)n1 [Example H-135, (3R)-3-[[2-Chloro-3-(trifluoromethyl)-benzoyl]amino]-N-[1-(2,6-dimethyl-pyrimidin-4-yl)-piperidin-4-yl]-N-methyl-2,3-dihydro-1H-indene-5-carboxylic acid amide] | 99 | 106
CN(CC1CCN(c2ccncn2)CC1)C(=O)c1ccc2c(c1)[C@H](NC(=O)c1ccccc1Cl)CC2 [Example H-136, (3R)-3-[(2-Chloro-benzoyl)amino]-N-methy-N-[(1-pyrimidin-4-yl-piperidin-4-yl)-methyl]-2,3-dihydro-1H-indene-5-carboxylic acid amide] | 41 | 107
Cc1cc(N2CCC(N(C)C(=O)c3ccc4c(c3)[C@H](NC(=O)c3cc(C(F)(F)F)ccc3Cl)CC4)CC2)nc(C)n1 [Example H-137, (3R)-3-[[2-Chloro-5-(trifluoromethyl)-benzoyl]amino]-N-[1-(2,6-dimethyl-pyrimidin-4-yl)-piperidin-4-yl]-N-methyl-2,3-dihydro-1H-indene-5-carboxylic acid amide] | 99 | 109
CN1CCN(C(=O)CN2CCC(N(C)C(=O)c3ccc4c(c3)[C@H](NC(=O)c3ccccc3Cl)CC4)CC2)CC1 [Example H-138, (3R)-3-[(2-Chloro-benzoyl)amino]-N-methyl-N-[1-[2-(4-methyl-piperazin-l-yl)-2-oxo-ethyl]-piperidin-4-yl]-2,3-dihydro-1H-indene-5-carboxylic acid amide] | 91 | 41
